The source of these data is paper PMC11302729, “Repurposing Hsp90 inhibitors as antimicrobials targeting two-component systems identifies compounds leading to loss of bacterial membrane integrity” (Microbiology Spectrum, 2024).

In one series the test system is sheep red blood cells. The series is described as follows: Haemolysis assay. The settings on record: if considered to cause haemolysis to red blood cells. The series is classed as cell-based. As for the experimental part: (§1) The hemolysis assay was adapted from the study by Evans et al. ([65]). Briefly, sheep RBC 10% washed pooled cells in PBS (Rockland Immunochemicals, Limerick, PA, USA) were diluted 1:5 to give a final concentration of 2% RBCs in PBS. […] A non-treated control, 1% DMSO (vehicle control), and complete cell lysis control (Triton-X 2%) were included in each assay. After exposure samples were centrifuged at 4°C at 1,000 g for 15 min and 100 µL of supernatant transferred to a clean well in a 96-well, clear, flat-bottom plate (Corning Incorporated). Released hemoglobin was measured by absorption at 540 nm using a Spectramax M5 plate reader. The experiments were performed in quadruplicate. The percentage of hemolysis was calculated as follows:
(§2) Hemolysis=A540nm,testcondition−A540nm,DMSOcontrol/A540nm,TritonXControl−A540nm,DMSOcontrol

A further series deals with HEK293 cells. The series is described as follows: Cell imaging of HEK293 cells. The series is classed as cell-based. The settings on record: LC20, 24 hours exposure, 40× amplification. As for the experimental part:
HEK293 cells were plated in 24-well plates on exposure medium for 24 hours (500,000 cells/well). Cells were exposed to a subset of compounds at a lethal concentration of 20% (LC20). After 24 hours exposure, cells were fixed with 2% glutaraldehyde for 15 min, washed with water, permeabilized with 0.5% Triton-X, washed twice with water, and stained with Toluidine blue 0.3%. For 100× amplification, cells were harvested by pipetting up and down in 250 µL of exposure medium. Cells from three wells treated with the same compound were pooled and centrifuged for 5 min at 1,500 r.p.m. The cell pellet was fixed in 0.1 M cacodylate buffer containing 2% glutaraldehyde (vol/vol) (pH 7.4). After 1 hour on ice, the pellet was washed with 0.1 M cacodylate buffer and fixed in 0.1 M cacodylate buffer containing 1% osmium tetroxide (wt/vol). After a further hour on ice, the cell pellet was embedded in hard Epon and 1-µm slides were cut and stained with 1% toluidine blue and 1% borax (wt/vol). Cell abnormalities were assessed by microscopy using a Leica DM6B light microscope (Leica Microsystems B.V., Amsterdam, the Netherlands) at 100× magnification.

Another series can be described thus: Haemolysis assay. The series is classed as cell-based, sheep. As to conditions: sheep, sheep red blood cells, 2% suspension; read-out: RBC hemolysis. As for the experimental part: as §1, §2

Molecules are shown by their SMILES.

In the case of `COc1ccc(-c2[nH]nc(C(F)(F)F)c2-c2ccccc2)c(O)c1` [DPP-2], the Haemolysis result in the series with sheep red blood cells is given as “MILD”. Consider `COc1ccc(-c2[nH]nc(C(F)(F)F)c2-c2ccc(Cl)cc2)c(O)c1` [DPP-6], for which the “Morphological changes of HEK293 cells” value with HEK293 cells was “membrane blebbing”. The hemolysis at 30 min in “Haemolysis assay” stood at 100%. Also, the Haemolysis result in the series on sheep red blood cells was “YES”. Turning to `Oc1ccc(-c2n[nH]c(C(F)(F)F)c2-c2ccc(Cl)cc2)c(O)c1` [DPP-5], in the series with HEK293 cells, the “Morphological changes of HEK293 cells” value is reported as “membrane blebbing”. The hemolysis at 30 min in “Haemolysis assay” turned out to be 100%.

As for `CCOc1ccc(-c2[nH]nc(C(F)(F)F)c2-c2ccc(Cl)cc2)c(O)c1` [DPP-7], the Haemolysis result with sheep red blood cells was “YES”.
